The source of these data is paper PMC7180948, “New Insights into 4-Anilinoquinazolines as Inhibitors of Cardiac Troponin I–Interacting Kinase (TNNi3K)” (Molecules, 2020).

A word on the Kd: it is a measure of binding affinity in units of concentration. A lower Kd goes with higher affinity.

The assay deals with T1, cardiac troponin I–interacting kinase (TNNi3K) (Homo sapiens, UniProt Q59H18).
T1 sequence (Q59H18 1-835): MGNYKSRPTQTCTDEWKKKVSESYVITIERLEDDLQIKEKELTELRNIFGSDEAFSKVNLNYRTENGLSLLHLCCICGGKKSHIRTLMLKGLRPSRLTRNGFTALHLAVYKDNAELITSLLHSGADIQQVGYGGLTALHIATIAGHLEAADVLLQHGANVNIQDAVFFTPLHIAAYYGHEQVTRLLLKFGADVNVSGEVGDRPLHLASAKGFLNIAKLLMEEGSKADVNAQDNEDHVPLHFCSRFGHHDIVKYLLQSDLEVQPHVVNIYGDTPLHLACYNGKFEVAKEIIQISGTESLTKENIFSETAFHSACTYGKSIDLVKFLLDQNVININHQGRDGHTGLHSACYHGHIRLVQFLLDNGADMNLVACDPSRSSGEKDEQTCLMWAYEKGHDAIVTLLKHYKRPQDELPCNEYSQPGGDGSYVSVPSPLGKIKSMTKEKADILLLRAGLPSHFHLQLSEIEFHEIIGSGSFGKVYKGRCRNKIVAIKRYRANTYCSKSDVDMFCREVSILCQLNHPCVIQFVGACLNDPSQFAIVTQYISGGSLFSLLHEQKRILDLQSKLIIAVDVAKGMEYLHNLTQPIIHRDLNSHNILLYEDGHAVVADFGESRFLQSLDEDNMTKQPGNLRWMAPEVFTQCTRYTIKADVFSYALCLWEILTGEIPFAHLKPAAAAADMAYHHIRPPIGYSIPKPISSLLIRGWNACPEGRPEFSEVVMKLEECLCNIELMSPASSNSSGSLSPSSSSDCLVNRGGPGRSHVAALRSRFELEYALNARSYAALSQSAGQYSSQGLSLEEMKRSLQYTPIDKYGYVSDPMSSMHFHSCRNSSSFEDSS
Briefly: TNNi3K binding assay (Kd, n = […]).

Take `CNS(=O)(=O)c1ccc(N(C)C)c(Nc2ncnc3ccc(OC)cc23)c1` [compound 16, 4-(dimethylamino)-3-((6-methoxyquinazolin-4-yl)amino)-N-methylbenzenesulfonamide]: the Kd amounted to 90 nM.
Next, `COc1cc2ncnc(Nc3ccccc3N(C)C)c2cc1OC` [compound 20, N^1-(6,7-dimethoxyquinazolin-4-yl)-N^2,N^2-dimethylbenzene-1,2-diamine]: 6200 nM; `CNS(=O)(=O)c1cccc(Nc2ncnc3cc(OC)c(OC)cc23)c1` [compound 2, 3-((6,7-dimethoxyquinazolin-4-yl)amino)-N-methylbenzenesulfonamide]: 120 nM; `CNS(=O)(=O)c1ccc(N(C)C)c(Nc2ncnc3cc(OC)ccc23)c1` [compound 17, 4-(dimethylamino)-3-((7-methoxyquinazolin-4-yl)amino)-N-methylbenzenesulfonamide]: 11 nM.
